Experimental data reported in PubChem BioAssay AID1996.
Values after ≈ are worked out from the molar mass of the structure shown.

Conditions: buffer; pH 7.4; 200.0 µM

Going from `O=C(COC(=O)c1ccc2ncsc2c1)NCc1ccccc1Cl` to `CC(=O)c1cccc(NC(=O)CSc2nc(C3CC3)nc3ccccc23)c1`, the solubility kinetic falls from 10.4 µg/mL (≈ 28.8 µM) to 0.9 µg/mL (≈ 2.38 µM) (12-fold).

`Cc1ccc(C)c(NC(=O)C(CC(=O)O)C2CCCO2)c1` (stereo not given) and `Cc1cc(=O)oc2cc(OC(C)C(=O)NC3CCCC3)ccc12` (stereo not given) are within 1.5-fold of each other in solubility kinetic: 40.1 µg/mL (≈ 138 µM) for the first, 44.6 µg/mL (≈ 141 µM) for the second.

Compared with `Clc1ccc(-c2csc(-c3ccno3)n2)cc1`, `O=C(NCCc1csc(-c2cccnc2)n1)c1cccc(Cl)c1` is higher in solubility kinetic: < 0.3 µg/mL for the first, > 51.6 µg/mL for the second.

Going from `O=C(Nc1ccccc1NC(=O)c1ccco1)c1ccccc1` to `CN(C)c1ccc(NC(=O)Cc2ccccc2)c2ccccc12`, the solubility kinetic falls from 17.1 µg/mL (≈ 55.8 µM) to 5.3 µg/mL (≈ 17.4 µM) (3.2-fold).

First: Cc1nnc(NC(=O)c2ccc(Br)o2)s1
Second: COC(=O)Cc1ccc2oc(-c3cccnc3)nc2c1
The solubility kinetic of the first is higher: > 43.2 µg/mL for the first, 37 µg/mL (≈ 138 µM) for the second.

Compared with `COc1ccc(S(=O)(=O)NCCc2ccco2)cc1OC`, `Cc1ccc(S(=O)(=O)NCc2ccc3c(c2)OCO3)cc1C` is lower in solubility kinetic: > 46.7 µg/mL for the first, 5 µg/mL (≈ 15.7 µM) for the second.

`O=c1[nH]c2c(oc3ccccc32)c(=O)n1Cc1ccccc1` and `Cc1ccc2nc3c(cc(C#N)c(=N)n3Cc3cccnc3)c(=O)n2c1` are within 1.5-fold of each other in solubility kinetic: 3 µg/mL (≈ 10.3 µM) for the first, 2.1 µg/mL (≈ 6.13 µM) for the second.

Compared with `O=c1onc(-c2ccc(Cl)cc2Cl)n1-c1cccnc1`, `CCOc1nc(C)ccc1-c1noc(-c2cccnc2)n1` is 1.8-fold lower in solubility kinetic: 19.5 µg/mL (≈ 63.3 µM) for the first, 11 µg/mL (≈ 39 µM) for the second.

`CC(C)c1ccc(C(CC(=O)O)N2Cc3ccccc3C2=O)cc1` (stereo not given) and `Cc1ccc(S(=O)(=O)NC(=O)NC(C)Cc2ccccc2)cc1` (stereo not given) cannot be ordered by solubility kinetic: > 48.5 µg/mL for the first, > 49.9 µg/mL for the second.

Compared with `Cc1cc(C)cc(NC(=O)N(C)Cc2ccccc2)c1`, `Cc1cc(C)c(O)c(NC(=S)NC(=O)Cc2ccccc2)c1` is 1.9-fold higher in solubility kinetic: 2 µg/mL (≈ 7.45 µM) for the first, 3.9 µg/mL (≈ 12.4 µM) for the second.

First: COCCNC(=O)C(=O)Nc1cc2c3c(c1)CC(=O)N3CCC2
Second: CCC(=O)Nc1ccc2c(c1)nc1n2CCN(CCOC)C1
The solubility kinetic of the first is lower: 42.3 µg/mL (≈ 133 µM) for the first, > 45.4 µg/mL for the second.

`CCNC(=S)NNC(=O)c1nn(C)c(C)c1Cl` and `Cc1cc(=O)oc(C)c1C(=O)Nc1cccnc1Cl` cannot be ordered by solubility kinetic: > 41.4 µg/mL for the first, > 41.8 µg/mL for the second.

`COCc1cc(=O)[nH]c(-c2ccc(C(F)(F)F)cc2)n1` and `COCc1cc(=O)[nH]c(SC)n1` cannot be ordered by solubility kinetic: > 42.6 µg/mL for the first, > 27.9 µg/mL for the second.

`O=S(=O)(NCc1ccc2c(c1)OCO2)c1cccc(F)c1` and `OC(CNCC1COc2ccccc2O1)COc1ccccc1F` (stereo not given) cannot be ordered by solubility kinetic: > 46.4 µg/mL for the first, > 50 µg/mL for the second.

Going from `O=C(COc1ccccc1)N1CCCCCCC1` to `O=C1NC2(CCCCCC2)C(=O)N1Cc1ccc(Br)cc1`, the solubility kinetic falls from > 37.1 µg/mL to 5.2 µg/mL (≈ 14.8 µM).

Compared with `Cc1ccc2ncnc(Nc3ccccc3)c2c1`, `Cc1nccc(-c2cccc(NC(=O)c3ccccc3Cl)c2)n1` is 3-fold higher in solubility kinetic: 11.6 µg/mL (≈ 49.3 µM) for the first, 35 µg/mL (≈ 108 µM) for the second.

Going from `CN1[C@@H](CC(=O)c2ccccc2)CCC[C@H]1C[C@H](O)c1ccccc1.Cl` to `O=C(Nc1cccc(NC(=O)C2C3CC4OC(=O)C2C4C3)c1)c1ccccc1` (stereo not given), the solubility kinetic falls from > 56.1 µg/mL to 46.7 µg/mL (≈ 124 µM).

Going from `CN(C)C(=O)c1cc(C(=O)c2ccccc2F)c[nH]1` to `CC(=O)c1sc(C(C)(C)C)cc1NC(=O)c1ccccc1C(=O)O`, the solubility kinetic rises from 38.9 µg/mL (≈ 149 µM) to > 51.8 µg/mL.

Going from `CCCNC(=O)c1noc2c1CCc1cc(OC)ccc1-2` to `COc1ccc(S(=O)(=O)Nc2ccc(C)cn2)cc1`, the solubility kinetic rises from 5.6 µg/mL (≈ 19.6 µM) to 25.4 µg/mL (≈ 91.3 µM) (4.5-fold).

Going from `CS(=O)(=O)c1ccc(Cl)c(NC(=O)COC(=O)c2ccc(S(=O)(=O)N3CCCC3)cc2)c1` to `O=S(=O)(c1ccc(F)cc1)N1CCCC1`, the solubility kinetic rises from 10.5 µg/mL (≈ 21 µM) to > 34.4 µg/mL.

First: Cn1c(N)c(C(=O)CSc2nc(N)cc(N)n2)c(=O)n(C)c1=O
Second: CC(=O)CC(C)(C)Nc1nc2cc([N+](=O)[O-])ccc2o1
The solubility kinetic of the first is 2.7-fold higher: 3 µg/mL (≈ 8.89 µM) for the first, 1.1 µg/mL (≈ 3.97 µM) for the second.

First: CN(C)c1ccc(/C=N/OC(=O)Nc2ccccc2)cc1
Second: COc1ccc(NC(=O)C#Cc2ccccc2)cc1
The solubility kinetic of the first is 2.1-fold higher: 11 µg/mL (≈ 38.8 µM) for the first, 5.2 µg/mL (≈ 20.7 µM) for the second.

Compared with `CC(C)CN(CC(C)C)C(=O)Nc1ccc(F)cc1F`, `CC(=O)Nc1c2c(nn1-c1ccc(F)cc1)CSC2` is higher in solubility kinetic: 33.2 µg/mL (≈ 117 µM) for the first, > 41.6 µg/mL for the second.

Going from `CCc1ccc(NC(=O)CCC(=O)c2ccc(C)cc2)cc1` to `COc1ccc(C(=O)O)cc1S(=O)(=O)Nc1ccc(C)cc1`, the solubility kinetic rises from 4.3 µg/mL (≈ 14.6 µM) to > 48.2 µg/mL.

Going from `CC(=O)NO` to `CN(C)CCCNC(=O)C(=O)NCC1CCCO1` (stereo not given), the solubility kinetic rises from < 0.2 µg/mL to > 38.6 µg/mL.

Compared with `Cc1cccc(C(=O)Oc2cc(C)[nH]c(=O)c2[N+](=O)[O-])c1`, `CCN1C(=O)/C(=C\c2cccc(OC(=O)c3ccco3)c2)SC1=S` is lower in solubility kinetic: > 43.2 µg/mL for the first, < 0.8 µg/mL for the second.

Compared with `COc1ccc(CCN2C(=NC(=O)C(C)C)SC3CS(=O)(=O)CC32)cc1` (stereo not given), `COc1ccc(CN2CCSCC2)c(OC)c1C` is 4-fold higher in solubility kinetic: 6.6 µg/mL (≈ 16.6 µM) for the first, 26.4 µg/mL (≈ 98.7 µM) for the second.

`CC1CCc2c(C(=O)NCc3ccco3)csc2C1` (stereo not given) and `CC1CCN(C(=O)c2ccc(S(=O)(=O)N3CCOCC3)cc2)CC1` are within 1.5-fold of each other in solubility kinetic: 34.9 µg/mL (≈ 127 µM) for the first, 43.2 µg/mL (≈ 123 µM) for the second.

Compared with `CC(=O)N=c1scc(-c2ccccc2)n1-c1cccc(O)c1`, `CCN1C(=O)/C(=C\c2ccncc2)SC1=S` is 2.4-fold higher in solubility kinetic: 2.6 µg/mL (≈ 8.38 µM) for the first, 6.2 µg/mL (≈ 24.8 µM) for the second.

`Cc1cc(C)c(C#N)c(SCCN2CCCCC2)n1` and `CC1(C)Cc2sc3c(=O)[nH]c(=S)[nH]c3c2CO1` cannot be ordered by solubility kinetic: > 41.3 µg/mL for the first, > 40.3 µg/mL for the second.
